Read-outs that look alike come from different tables or passages of the source.
Tests used:
TMEM16A = settings: ref Namkung et al., 2011; read-out: EC50 in activating TMEM16A; cited from earlier work
human ASM cells = test: Eact-induced depolarization of human ASM cells (FLIPR membrane potential); assay type: cell-based
Text: While the method above using histamine represents the standard protocol we used to evaluate compound effects in blocking pro-contractile depolarization of human BSMCs, for some experiments provided as Supplementary Figures 1–44 we employed the cholinergics methacholine or carbachol instead of histamine, or evaluated if the TMEM16A opener, Eact, could itself act like contractants to induce BSMC membrane depolarization.
3.31 Supplementary Figure 31
Supplementary Figure 31. The small molecule TMEM16A activator, Eact , induces depolarization of primary human airway smooth muscle cells like the contractant carbachol. Kinetic traces from the FLIPR membrane potential assay indicate Eact (A) and carbachol (B) elicit a concentration dependent depolarization of human ASM cells which were serum starved for 4 hours [prf SmGM overnight + 4h prf SmBM]. The potency for Eact depolarization of ASM cells isolated from a normal, asthmatic or COPD patient is shown in panel (C). The […]
report for activation of TMEM16A. RFU, relative fluorescence units. AUC, area under the curve.
(also on this page, place not known: ‘Eact’ Carbachol TMEM16A 3.0 µM A B C)
(1 picture or pasted object on this page, not shown here)

[1] = system: human bronchial epithelial ALI cultures; test: Leukotriene (LTC4, LTB4) secretion from human bronchial epithelial ALI cultures; assay type: cell-based; settings: 48 hrs, p < 0.05
Experimental: (§1) 1.2 Effects of the TMEM16A opener Eact on leukotriene secretion and Muc5AC mucin production from human bronchial epithelial air-liquid interface cultures.
(§2) Normal, asthma and COPD human bronchial epithelial (HBE) cells were from Lonza (Walkersville, MD). Cells were grown on […] transparent PET transwell membranes insert (BD biosciences, San Diego). S-ALI air-liquid interface media (Lonza) was changed every other day until the cells reached confluence, at which time the apical medium was removed to establish an air liquid interface cultures. The basolateral medium was changed every other day. All experimentation was carried out on day 14-18 after ALI establishment. At this point, mature secretory cells are present in these differentiating cultures and the cells respond with maximal […] to IL-13 (10 ng/ml) (Peprotech, […]
(§3) Human ALI cultures from a normal donor were treated with Eact, Eact vehicle and 10 ng/ml IL13 in basolateral medium for 48 hrs.
(§4) After 48hr, 100 µl of basolateral medium were collected for determining leukotriene B4 and C4 secretion using ELISA kits from Enzo Life Sciences, Inc. and LSBio LifeSpan Biosciences Inc., respectively, and by following manufacture’s protocols. […]
(§5) Levels of Muc5AC protein in apical washes was then determined using a Muc5AC ELISA kit (Cosmo Bio USA, Carlsbad, CA) and following the manufacture’s protocol.

[2] = system: human bronchial epithelial ALI cultures; test: Muc5AC secretion from human bronchial epithelial ALI cultures; assay type: cell-based; settings: 5 μM, 72 hours, p < 0.05
Experimental: as §1, §2, §3, §4, §5

TMEM16A (acd) = target: T1, TMEM16A (acd) (Homo sapiens, UniProt Q5XXA6); test: QPatch whole-cell electrophysiology, HEK293 TMEM16A (acd); assay type: cell-based; settings: QPatch
T1 sequence (Q5XXA6 1-986): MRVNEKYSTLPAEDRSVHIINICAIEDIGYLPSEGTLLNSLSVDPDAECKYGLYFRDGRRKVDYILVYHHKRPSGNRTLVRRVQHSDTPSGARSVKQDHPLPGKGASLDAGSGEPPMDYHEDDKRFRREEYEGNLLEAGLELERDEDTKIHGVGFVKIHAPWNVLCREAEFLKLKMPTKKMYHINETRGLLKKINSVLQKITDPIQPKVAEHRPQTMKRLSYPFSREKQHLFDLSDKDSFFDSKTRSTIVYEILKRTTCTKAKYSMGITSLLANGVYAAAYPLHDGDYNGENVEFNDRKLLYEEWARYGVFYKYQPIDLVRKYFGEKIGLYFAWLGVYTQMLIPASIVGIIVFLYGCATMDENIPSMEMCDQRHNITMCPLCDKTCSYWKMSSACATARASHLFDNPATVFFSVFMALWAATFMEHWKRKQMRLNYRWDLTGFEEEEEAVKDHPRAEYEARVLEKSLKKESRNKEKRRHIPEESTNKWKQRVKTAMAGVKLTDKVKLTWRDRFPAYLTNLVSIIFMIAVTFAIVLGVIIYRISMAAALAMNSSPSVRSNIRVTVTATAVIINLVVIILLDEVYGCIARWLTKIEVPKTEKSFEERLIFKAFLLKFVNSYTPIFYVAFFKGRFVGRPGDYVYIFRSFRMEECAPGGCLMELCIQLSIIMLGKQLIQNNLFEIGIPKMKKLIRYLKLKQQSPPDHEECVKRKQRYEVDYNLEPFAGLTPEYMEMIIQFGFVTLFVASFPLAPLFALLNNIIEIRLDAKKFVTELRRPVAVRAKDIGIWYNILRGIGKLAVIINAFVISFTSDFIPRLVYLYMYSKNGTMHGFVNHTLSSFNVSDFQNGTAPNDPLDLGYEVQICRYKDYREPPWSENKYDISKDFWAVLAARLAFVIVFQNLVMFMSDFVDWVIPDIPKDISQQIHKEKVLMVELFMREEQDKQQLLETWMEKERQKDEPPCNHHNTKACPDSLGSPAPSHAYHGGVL
Text: HEK293 cells stably expressing the TMEM16A (acd) variant were purchased from SB Drug Discovery. The HEK293 TMEM16A (abc) stable cell line was from ChanTest and COLO-205 cells were purchased from ATCC. The same standard buffers and recording conditions listed below were used for QPatch studies on all three cell lines.
Recording Solutions: were made weekly as below and stored at room temperature until used. It is recommended not to add ATP to internal solution until immediately before using on the QPatch. The external buffer (in mM) was 140 NaCl, 4 KCl, 2 CaCl2, 1 MgCl2, 10 HEPES, 10 Glucose, pH7.4, while the internal buffer (in mM) was 110 CsCl, 20 TEA-Cl, 5.374 CaCl2, 1.75 MgCl2, 10 EGTA, 10 HEPES, 4 Na2ATP, pH 7.2.
Once established in whole-cell configuration, cells were clamped to a holding potential (Vhold) of 0 mV on 48 well single hole patch plate. A standardized IV protocol was used to elicit ionic current through the TMEM16A chloride channel at 20 s intervals. Steady-state voltage pulses were from −100 mV to +100 mV in +20 mV steps for a duration of 500 ms. After each pulse the voltage was returned to −100 mV for 50 ms to obtain tail currents, and then returned to the holding potential of 0 mV until the beginning of the next sweep. […] This ensures a minimum of 60 s per concentration incubation before measuring current block. Currents were acquired at 10 kHz and filtered at 2 kHz, leak subtraction and Rseries were disabled. A 1 MΩ minimum resistance was set because cells are held in an open channel state and therefore resistance is low.
A cumulative concentration response was measured where each cell is exposed to five concentrations of test article with a dilution factor of 1:5 (e.g., 0.048, 0.24, 1.2, 6, and 30 μM). Cells were recorded for ∼60 s per solution/compound addition. Initially, external solution is applied twice to allow currents to stabilize. Then vehicle (from the saline reservoir) is added twice to monitor any effect 0.3% DMSO might have on currents. This leads directly into the concentration runs by applying Concentration 1 (single addition) for 1 min. Concentration 2 is then applied for the subsequent minute, etc. Recovery/washout was monitored for a final minute with a final external solution addition.
[…] […] Each cell’s current magnitude was then normalized to itself at the initial 0.3% vehicle control period prior to compound application. This step is to account for differences in current size for each cell. Normalized responses to test article were plotted against their concentrations to reveal a concentration-inhibition plot.
A Normalized Group Hill fit was then performed on the plotted results to yield a pooled IC50 value, reconstructed from a minimum of two cells/concentration. The baseline response as well as the full response were constrained to 1 and 0, respectively.

cytochrome P450 enzymes = system: cytochrome P450 enzymes; set-up: method as in White, 2004; Anderson and Curran, 2007; Rossignol, 2014; settings: ref White, 2004; Anderson and Curran, 2007; Rossignol, 2014; cited from earlier work
hTMEM16A (abc) = target: T2, hTMEM16A (abc) (Homo sapiens, UniProt Q5XXA6, DEL476-501); test: medchem TMEM16A halide-sensitive YFP assay, 22-point dose-response; assay type: cell-based; set-up: expressed in transfected cells
T2 sequence (Q5XXA6 with tags, fused parts or gaps isoform Q5XXA6-5 DEL539-564): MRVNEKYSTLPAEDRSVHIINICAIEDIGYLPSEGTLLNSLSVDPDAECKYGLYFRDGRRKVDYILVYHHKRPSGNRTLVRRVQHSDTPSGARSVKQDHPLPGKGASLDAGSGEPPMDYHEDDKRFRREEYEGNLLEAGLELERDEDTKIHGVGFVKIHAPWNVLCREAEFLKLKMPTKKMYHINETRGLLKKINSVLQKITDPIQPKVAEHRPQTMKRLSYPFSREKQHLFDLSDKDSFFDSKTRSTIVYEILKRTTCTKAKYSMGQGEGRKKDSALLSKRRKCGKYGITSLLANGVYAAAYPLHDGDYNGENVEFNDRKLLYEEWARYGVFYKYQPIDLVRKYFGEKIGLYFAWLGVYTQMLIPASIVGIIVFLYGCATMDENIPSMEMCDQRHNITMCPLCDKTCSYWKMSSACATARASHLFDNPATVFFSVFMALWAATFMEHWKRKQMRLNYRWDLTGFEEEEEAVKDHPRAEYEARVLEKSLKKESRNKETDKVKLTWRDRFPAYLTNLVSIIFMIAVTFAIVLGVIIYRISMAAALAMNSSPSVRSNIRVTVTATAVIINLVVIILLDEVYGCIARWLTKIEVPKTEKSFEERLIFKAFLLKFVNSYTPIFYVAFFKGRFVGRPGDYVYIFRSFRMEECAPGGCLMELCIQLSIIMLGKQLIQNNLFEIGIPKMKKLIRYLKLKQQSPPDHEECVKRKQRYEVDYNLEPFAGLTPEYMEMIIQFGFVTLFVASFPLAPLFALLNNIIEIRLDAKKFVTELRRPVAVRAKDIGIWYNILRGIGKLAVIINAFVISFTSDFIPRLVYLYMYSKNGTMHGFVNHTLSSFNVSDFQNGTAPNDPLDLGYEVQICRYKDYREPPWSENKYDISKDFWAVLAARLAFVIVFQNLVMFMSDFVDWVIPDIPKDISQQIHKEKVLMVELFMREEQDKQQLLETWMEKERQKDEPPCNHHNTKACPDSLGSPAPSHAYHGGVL
Experimental: The TMEM16A HEK293T eYFP (H149Q, I153L) stable cell line for medchem support was generated by transfecting 10 μg of linearized hTMEM16A(abc) DNA constructs into HEK293T eYFP (H149Q,I153L) stable cells. The transfected cells were cultured under 200 μg/ml of hygromycin B selection for 20 days and the stable pool was single cell seeded in 96 well plate and duplicated plate were made after single cell clones were formed. YFP function assay were performed on duplicated plate and clones producing higher changes in fluorescence from the YFP assay were chosen for further expansion to form a stable cell line.
Plates were incubated for 24 h at 37°C with 5% CO2. On the assay day, medium was removed and replaced with 20 μl/well of assay buffer (Hank’s Balanced Salt Solution with 10 mM HEPES pH 7.4), 10 μl/well of 40x diluted compounds was added to assay plate and it was incubated at room temperature for 30 min, after which baseline fluorescence was read in the FLIPR instrument for 10 s. Then, 5 μl/well of a 3x trigger solution (24 mM iodide, 3 μM ionomycin in assay buffer) was added and the fluorescence kinetic trace was recorded for 2 min.

airways = system: airways; set-up: method as in Stocks et al., 2014; settings: ref Stocks et al., 2014; cited from earlier work

COCCN(C(=O)c1cc(OC)c(OC)c(OC)c1)c1nc(-c2ccccc2)cs1 [Eact]
EC50 (TMEM16A): 3000 nM | EC50 (human ASM cells; cells from normal, asthmatic or COPD patient, read-out: average EC50 for depolarizing human ASM cells): 1000 to 3000 nM | EC50 (human ASM cells; read-out: average EC50 for Eact induced ASM depolarization): 1600 nM | increase of leukotriene (LTC4, LTB4) secretion [1]: 6–12 fold | increase of Muc5AC secretion [2]: 2–3 fold

CC(=O)Oc1ccccc1C(=O)Nc1ncc([N+](=O)[O-])s1 [Nitazoxanide]
IC50 (TMEM16A (acd); outward current at +100 mV, 170 nM free intracellular calcium, ~60 s per concentration, read-out: TMEM16A Chloride Current (IC50)): 1260 ± 1310 nM | calcium-activated chloride current inhibited (TMEM16A (acd); maximum antagonist activity): Over 80% | impact on cytochrome P450 enzymes (cytochrome P450 enzymes): no significant impact | IC50 (hTMEM16A (abc); average, 22-point dose-response, iodide as permeant anion, read-out: TMEM16A eYFP Assay (IC50)): 1230 nM | scope of block of ionomycin-induced iodide eYFP quenching (hTMEM16A (abc); up to 55.6 μM): partially inhibiting

OCc1cc(C(O)CNCCCCCCOCCCCc2ccccc2)ccc1O (centres unmarked) [Salmeterol, salmeterol]
onset of action (airways): 90 min

— PMC6382696, “Drug Repurposing: The Anthelmintics Niclosamide and Nitazoxanide Are Potent TMEM16A Antagonists That Fully Bronchodilate Airways” (Frontiers in Pharmacology, 2019)
